Laboratory results as given in patent US6369110B1, “Substituted guanidine derivatives and process for producing the same” (Sumitomo Pharmaceuticals Company, priority 1998, dated 2002).

These molecules were tested against T1, Na+/H+ exchange transport system (Rattus norvegicus, UniProt P26431) (assay: Inhibitory effect on the Na+/H+ exchange transport system (in vitro), pH change in isolated ventricular myocytes under an acid load).
T1 construct: a pH change in isolated ventricular myocytes (rat) under an acid load; from tissue; host or cells: isolated rat ventricular myocytes
T1 sequence (P26431 whole entry): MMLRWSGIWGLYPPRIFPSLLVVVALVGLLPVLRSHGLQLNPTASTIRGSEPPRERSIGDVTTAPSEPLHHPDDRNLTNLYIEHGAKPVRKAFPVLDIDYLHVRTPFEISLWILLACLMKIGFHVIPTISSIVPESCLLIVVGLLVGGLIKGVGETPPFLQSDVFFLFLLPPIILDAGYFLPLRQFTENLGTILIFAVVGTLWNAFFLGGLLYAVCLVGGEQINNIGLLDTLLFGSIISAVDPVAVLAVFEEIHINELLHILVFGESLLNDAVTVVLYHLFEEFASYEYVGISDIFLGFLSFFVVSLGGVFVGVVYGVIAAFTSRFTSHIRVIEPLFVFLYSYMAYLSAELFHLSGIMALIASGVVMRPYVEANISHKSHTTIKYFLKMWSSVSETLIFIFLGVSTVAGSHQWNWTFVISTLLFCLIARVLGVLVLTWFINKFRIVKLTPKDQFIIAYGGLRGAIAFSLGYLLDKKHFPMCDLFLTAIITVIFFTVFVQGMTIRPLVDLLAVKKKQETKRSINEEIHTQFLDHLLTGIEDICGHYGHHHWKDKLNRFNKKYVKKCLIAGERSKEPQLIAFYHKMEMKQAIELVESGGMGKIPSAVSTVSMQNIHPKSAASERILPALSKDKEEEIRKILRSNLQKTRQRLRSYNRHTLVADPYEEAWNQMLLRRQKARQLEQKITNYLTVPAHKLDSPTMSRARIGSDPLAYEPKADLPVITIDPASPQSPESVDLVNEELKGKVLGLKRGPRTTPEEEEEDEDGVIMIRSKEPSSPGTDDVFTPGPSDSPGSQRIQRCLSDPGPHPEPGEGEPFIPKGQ
Type: cell-based
Method: Inhibitory Effect on the Na^+/H^+ Exchange Transport System (In Vitro)
A test was carried out according to the method of Iemori et al. (J. Hypertension, 8, 153(1990)). In detail, inhibitory effect on the Na^+/H^+ exchange transport system was evaluated by using as an indication a pH change in isolated ventricular myocytes (rat) under an acid load.

Molecule | IC50 [µM]
CC1CC(C(=O)NC(=N)N)=Cc2ccccc2C1 (stereo not drawn) [Example 11, N-(aminoiminomethyl)-6-methyl-6.7-dihydro-5H-benzocycloheptene-8-carboxamide Methanesulfonate] | 0.21
N-(aminoiminomethyl )-6,7-dihydro-5H-benzocycloheptene-8-carboxamide Methanesulfonate [Example 3] | 0.05
N-(aminoiminomethyl)-1-(4-methylphenylsulfonyl)-2,3-dihydro-1H-benz[b]azepine-4-carboxamide Methanesulfonate [Example 4] | 3.3
N-(aminoiminomethyl)-2,3-dihydro-1H-benz[b]azepine-4-carboxamide dimethane-sulfonate [Example 5] | 0.15
N-(aminoiminomethyl)-2,3-dihydro-benz[b]oxepine-4-carboxamide Methanesulfonate [Example 6] | 0.07
N-(aminoiminomethyl)-2-methylsulfonyl-6,7-dihydro-5H-benzocycloheptene-8-carboxamide Methanesulfonate [Example 13] | > 10
N-(aminoiminomethyl)-2-methylthio-6,7-dihydro-5H-benzocycloheptene-8-carboxamide Methanesulfonate [Example 12] | 0.46
N-(aminoiminomethyl)-3,4-dihydronaphthalene-2-carboxamide Methanesulfonate [Example 1] | 0.3
N-(aminoiminomethyl)-4,9-dimethyl-6,7-dihydro-5H-benzocycloheptene-8-carboxamide Methanesulfonate [Example 9] | 2.3
N-(aminoiminomethyl)-4-methylsulfonyl-6,7-dihydro-5H-benzocycloheptene-8-carboxamide Methanesulfonate [Example 15] | 0.03
N-(aminoiminomethyl)-4-methylthio-6,7-dihydro-5H-benzocycloheptene-8-carboxamide Methanesulfonate [Example 14] | 0.03
N-(aminoiminomethyl)-5-methoxy-3,4-dihydronaphthalene-2-carboxamide Methanesulfonate [Example 2] | 0.1
N-(aminoiminomethyl)-5-methyl-6,7-dihydro-5H-benzocycloheptene-8-carboxamide Methanesulfonate [Example 7] | 0.05
N-(aminoiminomethyl)-7-methyl-6,7-dihydro-5H-benzocycloheptene-8-carboxamide Methanesulfonate [Example 10] | 0.01
N-(aminoiminomethyl)-9-methyl-6,7-dihydro-5H-benzocycloheptene-8-carboxamide Methanesulfonate [Example 8] | 7.1
